Reference: patent publication US20250109127A1, “METHODS OF USE OF PHENOXYPROPYLAMINE COMPOUNDS TO TREAT DEPRESSION” (Minerva Neurosciences, Inc., priority 2013, published 2025)
“And” between values parts separate entries of the source, which are not always exact repeats. Equal values may be shown once. Where a name gives a salt, the structure may show the parent alone.

Tested on: HVA release in the rat prefrontal cortex
Test: Microdialysis: HVA release in prefrontal cortex after I.P. administration
Type: in vivo
Details: for HVA release, MEAN / HVA release, individual animals: 0.3 mg/kg I.P.; for HVA release, MEAN / HVA release (% of basal levels) measured in dialysates, MEAN: n = 8; for HVA release, individual animals: one column per animal R#11,12,18,23,29,30,17,24
Procedure: The aim of the study was to evaluate, using microdialysis, the effects of an intraperitoneal (I.P.) administration in rats of three different doses of SON-117 on dopamine and its metabolites, serotonin and its metabolite (5-HIAA), and norepinephrine levels in prefrontal cortex.
Thirty-two adult male Wistar rats were used for the whole study (4 groups of eight animals planned for the study, Table 1).
Surgery was performed on rats weighing about 300 g at the beginning of the experiments. Rats were anaesthetized with Ketamine (50 mg/kg) & Xylazine (15 mg/kg) by intramuscular administration. The animals were placed in a stereotaxic apparatus in the flat-skull position at a constant setting of −3.3 mm between ear bars and the incisor bar. The animals were treated with a local anesthesic (xylocaine 1%, Astra Zeneca) and an analgesic (Temgesic, from Schering Plough, 0.05 mg/kg, s.c.). A rostrocaudal midline incision was made with a lancet to expose the dorsal skull surface. The “stereotaxic zero” was defined by the Bregma in accordance with Paxinos and Watson's atlas (1986). A hole was drilled in the skull with a drill and the meninges were pierced with a sterile needle to implant a CMA12 guide cannula which later received the dialysis probe.
Coordinates used for implanting guide cannula in prefrontal cortex from Bregma were anteroposterior 3.7 mm, mediolateral 0.8 mm, and dorsoventral −2 mm (top of the probe was at −5 mm). The guide cannula was fixed to the skull with two stainless steel screws (1.88 mm outside diameter) anchored. An application of dental cement was added. A plastic collar allowed each animal to be tethered to a Swivel assembly of the CMA 120 awake animal system. Following surgery, rats were kept in individual cages and allowed to recover for a minimum of 3-5 days before the experimentation. The rats were handled and put in plastic bowl for 10 min at least every day to habituate the animals to their new environment for the dialysis. An I.P. administration with saline was also performed every day.
Dialysis probes (CMA12/3 mm, membrane, 20 kD cut-off, Carnegie Medicine, Stockholm, Sweden), were carefully washed before inserting into the guide cannula. The wash was performed with the artificial cerebrospinal fluid (aCSF) medium (NaCl 147 mM, KCl 2.7 mM, CaCl2 1.2 mM, MgCl2 0.85 mM) at room temperature. The dialysis system was then equilibrated at 20° C. at a perfusion rate of 1 μl/min with a Carnegie pump (CMA100). All catheters (FEP tubing, internal volume of 1.2 μl/10 cm, and tubing adaptors) used for microdialysis were treated in the same conditions.
The probes duly prepared were inserted into the guide cannula and the CMA120 Swivel assembly secured to the animal using a plastic collar. Flow through the dialysis probe with aCSF was maintained at a rate of 1 μl/min during the whole experimentation. The first four fractions (corresponding to 2 hours) were discarded to avoid the effects of parenchymal disturbance and to ensure that an approximate steady-state level was reached. Fractions were then collected over a period of 8.5 h during which time the animals remained quiet. The dialysates were automatically collected with an autosampler (microfraction collector CMA 140, Carnegie Medicin) and stored at −80° C. until analysis. […] Perfusion was then maintained for 7 hours with aCSF. The dialysates (30 μl) were collected into 300 μl vials, transferred into dry ice and then kept frozen (−80° C.) until analysis. Frozen samples were shipped to a partner for analysis. At the end of the microdialysis study, a PBS with colored ink was perfused through the probe in order to visualize the dialyzed area.
Catecholamine assay: Concentrations of dopamine, DOPAC, HVA, 5-HIAA, 5-HT, and norepinephrin were determined for each sample by HPLC coupled with electrochemical detection.

Cc1nnc(-c2cc3c(OC[C@@H](O)CN4CCC(c5ccc(Cl)c(Cl)c5)CC4)cccc3o2)o1 [SON-117, (S)-1-(4-(3,4-dichlorophenyl)piperidino)-3-(2-(5-methyl-1,3,4-oxadiazol-2-yl)benzo(b)furan-4-yloxy)-2-propanol hydrochloride]
HVA release, MEAN (T3 h 30-T4 h): 90.45 % of respective basal | HVA release, individual animals (T3 h 30-T4 h, hydrochloride): 64.18 % of respective basal and 83.25 % of respective basal and 133.74 % of respective basal and 64.93 % of respective basal and 107.52 % of respective basal and 70.49 % of respective basal and 109.07 % of respective basal | HVA release, MEAN (T3 h-T3 h 30): 85.22 % of respective basal | HVA release, individual animals (T3 h-T3 h 30, hydrochloride): 63.81 % of respective basal and 90.24 % of respective basal and 111.62 % of respective basal and 62.71 % of respective basal and 98.55 % of respective basal and 74.57 % of respective basal and 95.05 % of respective basal | HVA release, MEAN (T4 h 30-T5 h): 85.23 % of respective basal | HVA release, individual animals (T4 h 30-T5 h, hydrochloride): 91.96 % of respective basal and 80.15 % of respective basal and 68.04 % of respective basal and 115.19 % of respective basal and 50.60 % of respective basal and 77.44 % of respective basal and 98.06 % of respective basal and 100.39 % of respective basal | HVA release, MEAN (T4 h-T4 h 30): 85.20 % of respective basal | HVA release, individual animals (T4 h-T4 h 30, hydrochloride): 92.27 % of respective basal and 67.44 % of respective basal and 79.90 % of respective basal and 118.84 % of respective basal and 74.80 % of respective basal and 79.15 % of respective basal and 73.39 % of respective basal and 95.82 % of respective basal | HVA release, MEAN (T5 h 30-T6 h): 83.81 % of respective basal | HVA release, individual animals (T5 h 30-T6 h, hydrochloride): 88.34 % of respective basal and 70.37 % of respective basal and 54.74 % of respective basal and 111.90 % of respective basal and 57.33 % of respective basal and 69.05 % of respective basal and 120.47 % of respective basal and 98.25 % of respective basal | HVA release, MEAN (T5 h-T5 h 30): 72.11 % of respective basal | HVA release, individual animals (T5 h-T5 h 30, hydrochloride): 33.79 % of respective basal and 37.83 % of respective basal and 125.18 % of respective basal and 104.80 % of respective basal and 54.92 % of respective basal and 81.46 % of respective basal and 45.38 % of respective basal and 93.54 % of respective basal | HVA release, MEAN (T6 h 30-T7 h): 82.40 % of respective basal | HVA release, individual animals (T6 h 30-T7 h, hydrochloride): 80.98 % of respective basal and 79.92 % of respective basal and 57.44 % of respective basal and 123.91 % of respective basal and 59.14 % of respective basal and 77.28 % of respective basal | HVA release, MEAN (T6 h-T6 h 30): 78.87 % of respective basal | HVA release, individual animals (T6 h-T6 h 30, hydrochloride): 80.55 % of respective basal and 69.54 % of respective basal and 51.01 % of respective basal and 121.49 % of respective basal and 63.35 % of respective basal and 86.74 % of respective basal and 63.13 % of respective basal and 95.14 % of respective basal | HVA release, MEAN (T-30 min-T0 (before administration)): 101.32 % of respective basal | HVA release, MEAN (T-1 h 30-T-1 h (before administration)): 95.27 % of respective basal | HVA release, MEAN (T-1 h-T-30 min (before administration)): 103.42 % of respective basal | HVA dialysate levels vs mean pre-administration value (SON-117 0.1 mg/kg I.P.): no statistically significant differences | HVA dialysate levels vs mean pre-administration value (SON-117 0.3 mg/kg IP): no statistically significant differences | HVA release (% of basal levels) measured in dialysates, MEAN (SON-117 3 mg/kg IP, T0-T30 min): 94.34 % of basal levels | HVA release (% of basal levels) measured in dialysates, MEAN (SON-117 3 mg/kg IP, T30-T1 h): 98.30 % of basal levels | HVA release (% of basal levels) measured in dialysates (SON-117 3 mg/kg IP, T30-T1 h, individual animals, hydrochloride, 3 mg/kg): 87.52 % of basal levels and 80.65 % of basal levels and 76.40 % of basal levels and 105.83 % of basal levels and 105.61 % of basal levels and 95.14 % of basal levels and 127.36 % of basal levels and 107.87 % of basal levels
